Assay results: patent US11814444B2, “Cyclic polypeptides for PCSK9 inhibition” (Ra Pharmaceuticals, Inc., priority 2018, dated 2023)
Numbered stars: 1 amine (or outer) side, 2 acyl side, 3 side chain; on linkers, the order of the positions; unused ones are H or OH. Bridge positions count the residues as written; N and C are the ends. Square brackets hold non-standard residues; d marks the D form. Peptide text beside a SMILES is read from it. Phe(4-guanidino) = N=C(N)Nc1ccc(C[C@H](N)C(=O)O)cc1; Phe(4-COOH) = N[C@@H](Cc1ccc(C(=O)O)cc1)C(=O)O; Trp(7-aza) = N[C@@H](Cc1c[nH]c2ncccc12)C(=O)O; Leu(3R-OH) = CC(C)[C@@H](O)[C@H](N)C(=O)O; dBip = N[C@H](Cc1ccc(-c2ccccc2)cc1)C(=O)O; NMeW = CN[C@@H](Cc1c[nH]c2ccccc12)C(=O)O; X1 = C[C@@](N[*:1])(C(=O)[*:2])c1ccccc1; 1Nal = N[C@@H](Cc1cccc2ccccc12)C(=O)O; 2Nal = N[C@@H](Cc1ccc2ccccc2c1)C(=O)O; mXylylene = c1cc(C[*:1])cc(C[*:2])c1; Bta = N[C@@H](Cc1csc2ccccc12)C(=O)O; Aic = NC1(C(=O)O)Cc2ccccc2C1; Chg = N[C@H](C(=O)O)C1CCCCC1; Tle = CC(C)(C)[C@H](N)C(=O)O; αMeV = CC(C)[C@](C)(N)C(=O)O; hSer = N[C@@H](CCO)C(=O)O; Iva = CC[C@](C)(N)C(=O)O; Ac5c = NC1(C(=O)O)CCCC1; Nva = CCC[C@H](N)C(=O)O; Thp = NC1(C(=O)O)CCOCC1; Aib = CC(C)(N)C(=O)O; Mpa = O=C(O)CCS

Target: human PCSK9 / human LDLR EGFa domain interaction (Homo sapiens, UniProt Q8NBP7)
Sequence (Q8NBP7 153-692): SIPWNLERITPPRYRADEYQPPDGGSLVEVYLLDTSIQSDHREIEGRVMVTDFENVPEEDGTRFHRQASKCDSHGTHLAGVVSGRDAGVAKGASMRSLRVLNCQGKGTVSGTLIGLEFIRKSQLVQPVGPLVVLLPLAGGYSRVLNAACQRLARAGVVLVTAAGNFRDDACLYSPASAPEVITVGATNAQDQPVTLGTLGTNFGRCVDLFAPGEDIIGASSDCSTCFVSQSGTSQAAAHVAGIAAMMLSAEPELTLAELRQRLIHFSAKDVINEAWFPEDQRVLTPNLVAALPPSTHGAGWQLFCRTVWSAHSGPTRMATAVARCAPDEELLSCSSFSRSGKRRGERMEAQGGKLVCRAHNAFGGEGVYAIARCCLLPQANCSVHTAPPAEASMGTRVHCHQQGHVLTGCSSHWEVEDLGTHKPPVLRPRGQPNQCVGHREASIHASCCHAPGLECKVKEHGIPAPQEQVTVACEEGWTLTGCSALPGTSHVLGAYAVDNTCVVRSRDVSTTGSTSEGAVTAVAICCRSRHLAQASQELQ
Sequence (Q8NBP7 31-152 partner limits assumed): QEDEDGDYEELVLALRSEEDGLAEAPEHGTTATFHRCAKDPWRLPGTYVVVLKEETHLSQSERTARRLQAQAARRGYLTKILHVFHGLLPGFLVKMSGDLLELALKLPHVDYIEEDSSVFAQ
Assay: TR-FRET assay of inhibition of the PCSK9-LDLR protein-protein interaction
Type: binding
Details: 20 nM avitag-biotinylated human PCSK9, 20 nM his-tagged human LDLR EGFa domain, 2 hours, room temperature
Experimental: A time-resolved fluorescence resonance energy (TR-FRET) assay was used to measure inhibition of the PCSK9-LDLR protein-protein interaction. Briefly, 20 nM avitag-biotinylated human PCSK9 was incubated with 20 nM his-tagged human LDLR EGFa domain in the presence of 5 nM LANCE Ulight Streptavidin (Perkin Elmer) and 5 nM europium-Anti-6×His (Perkin Elmer) for 2 hours covered at room temperature in buffer containing 50 mM HEPES, 150 mM NaCl, 5 mM CaCl2), 0.01% BSA and 0.01% Surfactant P20. Compounds were tested in dose-response and concentrations giving half-maximal inhibition calculated using a 4-parameter fit equation.

IC50	SMILES
100 to 1000 nM	CC(=O)N[C@H]1CSCc2cccc(c2)CSC[C@H](C(N)=O)NC(=O)[C@H]([C@@H](C)O)NC(=O)[C@](C)(C(C)C)NC(=O)[C@H](Cc2ccc(O)cc2)NC(=O)[C@H](C)NC(=O)C2(Cc3ccccc3C2)NC(=O)[C@H](Cc2c[nH]c3ncccc23)NC(=O)[C@H]([C@@H](C)O)NC(=O)[C@@H]2CCCN2C(=O)[C@H](Cc2ccc(O)cc2)NC(=O)[C@H](C(C)(C)C)NC1=O [Compound 196] (Ac-C[Tle]YPT[Trp(7-aza)][Aic]AY[αMeV]T[dC]-NH2; linker 1-12 via mXylylene)
1000 to 21000 nM	CCC[C@@H]1NC(=O)[C@H](Cc2c[nH]c3ncccc23)NC(=O)[C@H]([C@@H](C)O)NC(=O)[C@@H](Cc2cnc[nH]2)NC(=O)[C@H](Cc2ccc(O)cc2)NC(=O)[C@H](C(C)(C)C)NC(=O)CCSCc2cccc(c2)CSC[C@@H](C(N)=O)NC(=O)[C@H]([C@@H](C)O)NC(=O)[C@H](CCC)NC(=O)[C@H](Cc2ccc(O)cc2)NC(=O)[C@H](CCC(=O)O)NC1=O [Compound 204] ([Mpa][Tle]Y[dH]T[Trp(7-aza)][Nva]EY[Nva]TC-NH2; linker 1-12 via mXylylene)
50000 to 100000 nM	CCC[C@@H]1NC(=O)[C@H](Cc2ccc(O)cc2)NC(=O)[C@H](CCC(=O)O)NC(=O)[C@H](CCC)NC(=O)[C@H](Cc2c[nH]c3ccccc23)N(C)C(=O)[C@H]([C@@H](C)O)NC(=O)[C@H](Cc2c[nH]cn2)NC(=O)[C@H](Cc2ccc(O)cc2)NC(=O)[C@H](C(C)(C)C)NC(=O)CCSCc2cccc(c2)CSC[C@@H](C(N)=O)NC(=O)[C@H]([C@@H](C)O)NC1=O [Compound 206] ([Mpa][Tle]YHT[NMeW][Nva]EY[Nva]TC-NH2; linker 1-12 via mXylylene)
100 to 1000 nM	CCC[C@@H]1NC(=O)[C@H](Cc2c[nH]c3ncccc23)NC(=O)[C@H]([C@@H](C)O)NC(=O)[C@H](Cc2c[nH]cn2)NC(=O)[C@H](Cc2ccc(O)cc2)NC(=O)[C@H](C(C)(C)C)NC(=O)CCSCc2cccc(c2)CSC[C@@H](C(N)=O)NC(=O)[C@H]([C@@H](C)O)NC(=O)[C@H](CCC)NC(=O)[C@H](Cc2ccc(O)cc2)NC(=O)[C@H](CCO)NC1=O [Compound 274] ([Mpa][Tle]YHT[Trp(7-aza)][Nva][hSer]Y[Nva]TC-NH2; linker 1-12 via mXylylene)
100 to 1000 nM	CCC[C@@H]1NC(=O)[C@H](Cc2csc3ccccc23)NC(=O)[C@H]([C@@H](C)O)NC(=O)[C@H](Cc2c[nH]cn2)NC(=O)[C@H](Cc2ccc(O)cc2)NC(=O)[C@H](C(C)(C)C)NC(=O)CCSCc2cccc(c2)CSC[C@@H](C(N)=O)NC(=O)[C@H]([C@@H](C)O)NC(=O)[C@H](CCC)NC(=O)[C@H](Cc2ccc(O)cc2)NC(=O)[C@H](CCC(=O)O)NC1=O [Compound 275] ([Mpa][Tle]YHT[Bta][Nva]EY[Nva]TC-NH2; linker 1-12 via mXylylene)
1000 to 21000 nM	CCC[C@@H]1NC(=O)[C@H](Cc2ccc3ccccc3c2)NC(=O)[C@H]([C@@H](C)O)NC(=O)[C@H](Cc2c[nH]cn2)NC(=O)[C@H](Cc2ccc(O)cc2)NC(=O)[C@H](C(C)(C)C)NC(=O)CCSCc2cccc(c2)CSC[C@@H](C(N)=O)NC(=O)[C@H]([C@@H](C)O)NC(=O)[C@H](CCC)NC(=O)[C@H](Cc2ccc(O)cc2)NC(=O)[C@H](CCC(=O)O)NC1=O [Compound 276] ([Mpa][Tle]YHT[2Nal][Nva]EY[Nva]TC-NH2; linker 1-12 via mXylylene)
100 to 1000 nM	CCC[C@@H]1NC(=O)[C@H](Cc2cccc3ccccc23)NC(=O)[C@H]([C@@H](C)O)NC(=O)[C@H](Cc2c[nH]cn2)NC(=O)[C@H](Cc2ccc(O)cc2)NC(=O)[C@H](C(C)(C)C)NC(=O)CCSCc2cccc(c2)CSC[C@@H](C(N)=O)NC(=O)[C@H]([C@@H](C)O)NC(=O)[C@H](CCC)NC(=O)[C@H](Cc2ccc(O)cc2)NC(=O)[C@H](CCC(=O)O)NC1=O [Compound 277] ([Mpa][Tle]YHT[1Nal][Nva]EY[Nva]TC-NH2; linker 1-12 via mXylylene)
21000 to 50000 nM	CCC[C@@H]1NC(=O)[C@H](Cc2c[nH]c3ncccc23)NC(=O)[C@H]([C@@H](C)O)NC(=O)[C@H](Cc2c[nH]cn2)NC(=O)[C@H](Cc2ccc(O)cc2)NC(=O)[C@H](C(C)(C)C)NC(=O)CCSCc2cccc(c2)CSC[C@@H](C(N)=O)NC(=O)[C@H]([C@@H](C)O)NC(=O)[C@H](CCC)NC(=O)[C@H](Cc2ccc(O)cc2)NC(=O)[C@H](Cc2ccc(C(=O)O)cc2)NC1=O [Compound 278] ([Mpa][Tle]YHT[Trp(7-aza)][Nva][Phe(4-COOH)]Y[Nva]TC-NH2; linker 1-12 via mXylylene)
100 to 1000 nM	CCC[C@@H]1NC(=O)[C@H](Cc2c[nH]c3ncccc23)NC(=O)[C@H]([C@@H](C)O)NC(=O)[C@H](Cc2c[nH]cn2)NC(=O)[C@H](Cc2ccc(O)cc2)NC(=O)[C@H](C(C)(C)C)NC(=O)CCSCc2cccc(c2)CSC[C@@H](C(N)=O)NC(=O)[C@H]([C@@H](C)O)NC(=O)[C@H](C2CCCCC2)NC(=O)[C@H](Cc2ccc(O)cc2)NC(=O)[C@H](CCC(=O)O)NC1=O [Compound 285] ([Mpa][Tle]YHT[Trp(7-aza)][Nva]EY[Chg]TC-NH2; linker 1-12 via mXylylene)
100 to 1000 nM	CCC[C@@H]1NC(=O)[C@H](Cc2c[nH]c3ncccc23)NC(=O)[C@H](CC(N)=O)NC(=O)[C@H](Cc2c[nH]cn2)NC(=O)[C@H](Cc2ccc(O)cc2)NC(=O)[C@H](C(C)(C)C)NC(=O)CCSCc2cccc(c2)CSC[C@@H](C(N)=O)NC(=O)[C@H]([C@@H](C)O)NC(=O)[C@H](CCC)NC(=O)[C@H](Cc2ccc(O)cc2)NC(=O)[C@H](CCC(=O)O)NC1=O [Compound 287] ([Mpa][Tle]YHN[Trp(7-aza)][Nva]EY[Nva]TC-NH2; linker 1-12 via mXylylene)
100 to 1000 nM	CCC[C@@H]1NC(=O)[C@H](Cc2ccc(O)cc2)NC(=O)[C@H](CCC(=O)O)NC(=O)[C@](C)(CC)NC(=O)[C@H](Cc2c[nH]c3ncccc23)NC(=O)[C@H]([C@@H](C)O)NC(=O)[C@H](Cc2c[nH]cn2)NC(=O)[C@H](Cc2ccc(O)cc2)NC(=O)[C@H](C(C)(C)C)NC(=O)CCSCc2cccc(c2)CSC[C@@H](C(N)=O)NC(=O)[C@H]([C@@H](C)O)NC1=O [Compound 291] ([Mpa][Tle]YHT[Trp(7-aza)][Iva]EY[Nva]TC-NH2; linker 1-12 via mXylylene)
1 to 100 nM	C[C@@H](O)[C@@H]1NC(=O)[C@H](Cc2c[nH]cn2)NC(=O)[C@H](Cc2ccc(O)cc2)NC(=O)[C@H](C(C)(C)C)NC(=O)CCSCc2cccc(c2)CSC[C@@H](C(N)=O)NC(=O)[C@H]([C@@H](C)O)NC(=O)[C@](C)(c2ccccc2)NC(=O)[C@H](Cc2ccc(O)cc2)NC(=O)[C@H](CCC(=O)O)NC(=O)C(C)(C)NC(=O)[C@H](Cc2c[nH]c3ncccc23)NC1=O [Compound 293] ([Mpa][Tle]YHT[Trp(7-aza)][Aib]EY[X1]TC-NH2; linker 1-12 via mXylylene)
100 to 1000 nM	CCC[C@@H]1NC(=O)[C@H](Cc2ccc(O)cc2)NC(=O)[C@H](CCC(=O)O)NC(=O)C2(CCCC2)NC(=O)[C@H](Cc2c[nH]c3ncccc23)NC(=O)[C@H]([C@@H](C)O)NC(=O)[C@H](Cc2c[nH]cn2)NC(=O)[C@H](Cc2ccc(O)cc2)NC(=O)[C@H](C(C)(C)C)NC(=O)CCSCc2cccc(c2)CSC[C@@H](C(N)=O)NC(=O)[C@H]([C@@H](C)O)NC1=O [Compound 299] ([Mpa][Tle]YHT[Trp(7-aza)][Ac5c]EY[Nva]TC-NH2; linker 1-12 via mXylylene)
100 to 1000 nM	CCC[C@@H]1NC(=O)[C@H](Cc2ccc(O)cc2)NC(=O)[C@H](CCC(=O)O)NC(=O)C2(CCOCC2)NC(=O)[C@H](Cc2c[nH]c3ncccc23)NC(=O)[C@H]([C@@H](C)O)NC(=O)[C@H](Cc2c[nH]cn2)NC(=O)[C@H](Cc2ccc(O)cc2)NC(=O)[C@H](C(C)(C)C)NC(=O)CCSCc2cccc(c2)CSC[C@@H](C(N)=O)NC(=O)[C@H]([C@@H](C)O)NC1=O [Compound 300] ([Mpa][Tle]YHT[Trp(7-aza)][Thp]EY[Nva]TC-NH2; linker 1-12 via mXylylene)
1000 to 21000 nM	CCC[C@@H]1NC(=O)[C@H](Cc2c[nH]c3ncccc23)NC(=O)[C@H]([C@H](O)C(C)C)NC(=O)[C@H](Cc2c[nH]cn2)NC(=O)[C@H](Cc2ccc(O)cc2)NC(=O)[C@H](C(C)(C)C)NC(=O)CCSCc2cccc(c2)CSC[C@@H](C(N)=O)NC(=O)[C@H]([C@@H](C)O)NC(=O)[C@H](CCC)NC(=O)[C@H](Cc2ccc(O)cc2)NC(=O)[C@H](CCC(=O)O)NC1=O [Compound 305] ([Mpa][Tle]YH[Leu(3R-OH)][Trp(7-aza)][Nva]EY[Nva]TC-NH2; linker 1-12 via mXylylene)
1000 to 21000 nM	CCC[C@@H]1NC(=O)[C@H](Cc2c[nH]c3ncccc23)NC(=O)[C@H]([C@@H](C)O)NC(=O)[C@H](Cc2c[nH]cn2)NC(=O)[C@H](Cc2ccc(O)cc2)NC(=O)[C@H](C(C)(C)C)NC(=O)CCSCc2cccc(c2)CSC[C@@H](C(N)=O)NC(=O)[C@H]([C@@H](C)O)NC(=O)[C@H](CCC)NC(=O)[C@H](Cc2ccc(NC(=N)N)cc2)NC(=O)[C@H](CCC(=O)O)NC1=O [Compound 323] ([Mpa][Tle]YHT[Trp(7-aza)][Nva]E[Phe(4-guanidino)][Nva]TC-NH2; linker 1-12 via mXylylene)
100 to 1000 nM	CCC[C@@H]1NC(=O)[C@H](Cc2c[nH]c3ncccc23)NC(=O)[C@H]([C@@H](C)O)NC(=O)[C@H](Cc2c[nH]cn2)NC(=O)[C@H](Cc2ccc(O)cc2)NC(=O)[C@H](C(C)(C)C)NC(=O)CCSCc2cccc(c2)CSC[C@@H](C(N)=O)NC(=O)[C@H]([C@@H](C)O)NC(=O)[C@H](CCC)NC(=O)[C@@H](Cc2ccc(-c3ccccc3)cc2)NC(=O)[C@H](CCC(=O)O)NC1=O [Compound 325] ([Mpa][Tle]YHT[Trp(7-aza)][Nva]E[dBip][Nva]TC-NH2; linker 1-12 via mXylylene)
